Results published in PubChem BioAssay (NCI).
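How tested: cells in 96-well plates exposed to compound for 48 hours at five concentrations. At the TGI there is no net growth.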

Key:
Experiment in all cases: DTP human tumour cell line panel, 48 h
CAKI-1 renal = system: CAKI-1 renal
SNB-19 CNS = system: SNB-19 CNS
RXF 393 renal = system: RXF 393 renal
HL-60(TB) leukemia = system: HL-60(TB) leukemia
UACC-257 melanoma = system: UACC-257 melanoma
HS 578T breast = system: HS 578T breast
MCF7 breast = system: MCF7 breast
RPMI-8226 leukemia = system: RPMI-8226 leukemia
SK-MEL-5 melanoma = system: SK-MEL-5 melanoma
NCI-H23 lung = system: NCI-H23 lung
HCT-15 colon = system: HCT-15 colon
HT29 colon = system: HT29 colon
MDA-MB-435 = system: MDA-MB-435
SK-OV-3 ovarian = system: SK-OV-3 ovarian
SK-MEL-2 melanoma = system: SK-MEL-2 melanoma
HCT-116 colon = system: HCT-116 colon
K-562 leukemia = system: K-562 leukemia
786-0 renal = system: 786-0 renal
SR leukemia = system: SR leukemia
PC-3 prostate = system: PC-3 prostate
IGROV1 ovarian = system: IGROV1 ovarian
SF-295 CNS = system: SF-295 CNS
SNB-75 CNS = system: SNB-75 CNS
OVCAR-8 ovarian = system: OVCAR-8 ovarian
SK-MEL-28 melanoma = system: SK-MEL-28 melanoma
T-47D breast = system: T-47D breast
EKVX NSCLC = system: EKVX NSCLC
MDA-N = system: MDA-N
NCI-H522 lung = system: NCI-H522 lung
OVCAR-4 ovarian = system: OVCAR-4 ovarian
A498 renal = system: A498 renal
OVCAR-5 ovarian = system: OVCAR-5 ovarian
SW-620 colon = system: SW-620 colon
UO-31 renal = system: UO-31 renal
SF-268 CNS = system: SF-268 CNS
NCI-H460 lung = system: NCI-H460 lung
M14 melanoma = system: M14 melanoma
UACC-62 melanoma = system: UACC-62 melanoma
NCI/ADR-RES ovarian = system: NCI/ADR-RES ovarian
LOX IMVI melanoma = system: LOX IMVI melanoma
HOP-62 NSCLC = system: HOP-62 NSCLC
COLO 205 colon = system: COLO 205 colon
MDA-MB-231 breast = system: MDA-MB-231 breast
SN12C renal = system: SN12C renal
U251 CNS = system: U251 CNS
CCRF-CEM leukemia = system: CCRF-CEM leukemia
MOLT-4 leukemia = system: MOLT-4 leukemia
A549 NSCLC = system: A549 NSCLC
TK-10 renal = system: TK-10 renal
BT-549 breast = system: BT-549 breast
MALME-3M melanoma = system: MALME-3M melanoma
ACHN renal = system: ACHN renal
SF-539 CNS = system: SF-539 CNS
OVCAR-3 ovarian = system: OVCAR-3 ovarian
HOP-92 NSCLC = system: HOP-92 NSCLC
DU-145 prostate = system: DU-145 prostate
KM12 colon = system: KM12 colon
NCI-H226 lung = system: NCI-H226 lung

## O=[N+]([O-])c1cc(Cl)cc2c1nc(NCCO)c1ccccc12
CAKI-1 renal
  TGI: > 100 µM
SNB-19 CNS
  TGI: > 100 µM
RXF 393 renal
  TGI: 19.3 µM
HL-60(TB) leukemia
  TGI: > 56.2 µM
UACC-257 melanoma
  TGI: 54.8 µM
HS 578T breast
  TGI: > 100 µM
MCF7 breast
  TGI: > 72.4 µM
RPMI-8226 leukemia
  TGI: > 100 µM
SK-MEL-5 melanoma
  TGI: 3.96 µM
NCI-H23 lung
  TGI: > 80.9 µM
HCT-15 colon
  TGI: > 100 µM
HT29 colon
  TGI: > 43 µM
MDA-MB-435
  TGI: > 100 µM
SK-OV-3 ovarian
  TGI: > 100 µM
SK-MEL-2 melanoma
  TGI: 43.8 µM
HCT-116 colon
  TGI: > 100 µM
K-562 leukemia
  TGI: > 94 µM
786-0 renal
  TGI: > 100 µM
SR leukemia
  TGI: 7.09 µM
PC-3 prostate
  TGI: > 70.4 µM
IGROV1 ovarian
  TGI: > 100 µM
SF-295 CNS
  TGI: > 100 µM
SNB-75 CNS
  TGI: > 81.7 µM
OVCAR-8 ovarian
  TGI: > 100 µM
SK-MEL-28 melanoma
  TGI: > 100 µM
T-47D breast
  TGI: > 100 µM
EKVX NSCLC
  TGI: > 100 µM
MDA-N
  TGI: > 100 µM
NCI-H522 lung
  TGI: 62.9 µM
OVCAR-4 ovarian
  TGI: > 100 µM
A498 renal
  TGI: 56.4 µM
OVCAR-5 ovarian
  TGI: > 63 µM
SW-620 colon
  TGI: > 100 µM
UO-31 renal
  TGI: > 100 µM
SF-268 CNS
  TGI: > 100 µM
NCI-H460 lung
  TGI: 15.7 µM
M14 melanoma
  TGI: > 100 µM
UACC-62 melanoma
  TGI: > 60 µM
NCI/ADR-RES ovarian
  TGI: > 100 µM
LOX IMVI melanoma
  TGI: > 100 µM
HOP-62 NSCLC
  TGI: > 100 µM
COLO 205 colon
  TGI: 0.236 µM
MDA-MB-231 breast
  TGI: > 100 µM
SN12C renal
  TGI: > 100 µM
U251 CNS
  TGI: > 100 µM
CCRF-CEM leukemia
  TGI: > 100 µM
MOLT-4 leukemia
  TGI: 34 µM
A549 NSCLC
  TGI: > 100 µM
TK-10 renal
  TGI: > 60.5 µM
BT-549 breast
  TGI: > 82.1 µM
MALME-3M melanoma
  TGI: 57.1 µM
ACHN renal
  TGI: > 100 µM
SF-539 CNS
  TGI: > 100 µM
OVCAR-3 ovarian
  TGI: > 100 µM
HOP-92 NSCLC
  TGI: > 88 µM
DU-145 prostate
  TGI: 15.9 µM
KM12 colon
  TGI: 93.7 µM
NCI-H226 lung
  TGI: > 80.2 µM

## O=c1n(-c2ccccc2)c(=O)n2n1C1CCC2CC1
CAKI-1 renal
  TGI: > 100 µM
SNB-19 CNS
  TGI: > 100 µM
HL-60(TB) leukemia
  TGI: > 100 µM
UACC-257 melanoma
  TGI: > 100 µM
HS 578T breast
  TGI: > 100 µM
MCF7 breast
  TGI: > 100 µM
RPMI-8226 leukemia
  TGI: > 100 µM
SK-MEL-5 melanoma
  TGI: > 100 µM
NCI-H23 lung
  TGI: > 100 µM
HCT-15 colon
  TGI: > 100 µM
HT29 colon
  TGI: > 100 µM
MDA-MB-435
  TGI: > 100 µM
SK-OV-3 ovarian
  TGI: > 100 µM
SK-MEL-2 melanoma
  TGI: > 100 µM
HCT-116 colon
  TGI: > 100 µM
K-562 leukemia
  TGI: > 100 µM
786-0 renal
  TGI: > 100 µM
SR leukemia
  TGI: > 100 µM
PC-3 prostate
  TGI: > 100 µM
IGROV1 ovarian
  TGI: > 100 µM
SF-295 CNS
  TGI: > 100 µM
SNB-75 CNS
  TGI: > 100 µM
OVCAR-8 ovarian
  TGI: > 100 µM
SK-MEL-28 melanoma
  TGI: > 100 µM
T-47D breast
  TGI: > 100 µM
EKVX NSCLC
  TGI: > 100 µM
MDA-N
  TGI: > 100 µM
A498 renal
  TGI: > 100 µM
OVCAR-5 ovarian
  TGI: > 100 µM
SW-620 colon
  TGI: > 100 µM
UO-31 renal
  TGI: > 100 µM
SF-268 CNS
  TGI: > 100 µM
NCI-H460 lung
  TGI: > 100 µM
M14 melanoma
  TGI: > 100 µM
UACC-62 melanoma
  TGI: > 100 µM
NCI/ADR-RES ovarian
  TGI: > 100 µM
LOX IMVI melanoma
  TGI: > 100 µM
HOP-62 NSCLC
  TGI: > 100 µM
COLO 205 colon
  TGI: > 100 µM
MDA-MB-231 breast
  TGI: > 100 µM
SN12C renal
  TGI: > 100 µM
U251 CNS
  TGI: > 100 µM
CCRF-CEM leukemia
  TGI: > 100 µM
MOLT-4 leukemia
  TGI: > 100 µM
A549 NSCLC
  TGI: > 100 µM
TK-10 renal
  TGI: > 100 µM
BT-549 breast
  TGI: > 100 µM
ACHN renal
  TGI: > 100 µM
SF-539 CNS
  TGI: > 100 µM
OVCAR-3 ovarian
  TGI: > 100 µM
HOP-92 NSCLC
  TGI: > 100 µM
DU-145 prostate
  TGI: > 100 µM
KM12 colon
  TGI: > 100 µM
NCI-H226 lung
  TGI: > 100 µM
